The values that follow come from patent US11485740B2, “Inhibitors of TRPC6” (Boehringer Ingelheim International GmbH, priority 2018, dated 2022).

SMILES strings stand for the structures.

The term IC50 denotes the concentration needed to halve the response being measured.

In this assay the target is T1, human TRPC6 (Homo sapiens, UniProt Q9Y210).
T1 construct: expressed in transfected cells
T1 sequence (Q9Y210 1-931): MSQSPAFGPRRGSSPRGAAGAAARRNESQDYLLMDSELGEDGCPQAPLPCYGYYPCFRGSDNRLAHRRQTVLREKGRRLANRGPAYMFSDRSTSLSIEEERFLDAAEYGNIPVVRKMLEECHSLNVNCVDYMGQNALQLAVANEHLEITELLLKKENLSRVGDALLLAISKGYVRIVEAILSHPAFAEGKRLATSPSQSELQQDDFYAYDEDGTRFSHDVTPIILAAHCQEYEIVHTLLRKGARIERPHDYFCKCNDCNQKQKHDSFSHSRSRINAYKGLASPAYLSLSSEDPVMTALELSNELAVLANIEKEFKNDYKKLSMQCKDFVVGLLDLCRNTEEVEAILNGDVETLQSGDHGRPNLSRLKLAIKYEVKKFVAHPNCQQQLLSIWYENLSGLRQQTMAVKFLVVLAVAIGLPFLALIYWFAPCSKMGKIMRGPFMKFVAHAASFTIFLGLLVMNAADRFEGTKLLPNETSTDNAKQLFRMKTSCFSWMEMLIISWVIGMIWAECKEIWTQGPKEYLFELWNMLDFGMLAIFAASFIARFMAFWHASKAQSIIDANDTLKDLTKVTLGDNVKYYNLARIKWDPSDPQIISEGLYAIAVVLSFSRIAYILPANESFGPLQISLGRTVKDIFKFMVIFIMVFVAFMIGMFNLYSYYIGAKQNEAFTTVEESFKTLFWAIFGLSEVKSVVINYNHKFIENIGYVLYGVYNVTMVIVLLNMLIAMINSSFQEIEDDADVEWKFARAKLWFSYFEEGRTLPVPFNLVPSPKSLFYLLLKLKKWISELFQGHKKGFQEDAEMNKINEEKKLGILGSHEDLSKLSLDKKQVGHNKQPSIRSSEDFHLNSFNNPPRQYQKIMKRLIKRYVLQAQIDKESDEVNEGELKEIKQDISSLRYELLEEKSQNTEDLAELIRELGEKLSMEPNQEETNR
Description: High throughput screening assay: Fluo4/AM calcium fluorescence in HEK293/TREx cells expressing human TRPC6, agonist GSK1702934A (single concentration 10 μM and IC50 curves). The assay is classed as cell-based. As to conditions: antagonist effect against human TRPC6, 7 concentrations 20 μM to 0.027 μM, triplicate. Summed up: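 HEK293/TREx cells stably carrying tetracycline-induced (1 μg/ml) human TRPC6, loaded with Fluo4/AM (0.5 μM, 60 min, RT), pretreated 2 min with compound (10 μM final in screen), then stimulated with GSK1702934A in high-Ca2+ Ringer's (20 mM Ca2+ final). Fluorescence ratio over ~3 min normalized to no-compound and control-blocker wells; IC50 from triplicate curves.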
Turning to `CC(C)Cc1ccc(-c2ccc(C(=O)N3CCC(c4ccc(N)nn4)CC3)cc2)cc1` [Compound 83, [4-(6-Amino-pyridazin-3-yl)-piperidin-1-yl]-(4′-isobutyl-biphenyl-4-yl)-methanone], the IC50 turned out to be 8700 nM. To `COc1cc(C(=O)N2CCC(c3ccc(N)nn3)CC2)ncc1-c1ccc(C(F)(F)F)cc1` [Compound 27, 6-(1-{4-Methoxy-5-[4-(trifluoromethyl)phenyl]pyridine-2-carbonyl}piperidin-4-yl)pyridazin-3-amine] belongs 36 nM; to `COc1cc(C(=O)N2CCN(c3ccc(N)nc3)C[C@@H]2CO)ncc1-c1ccc(F)cc1` [Compound 90, [(R)-4-(6-Amino-pyridin-3-yl)-2-hydroxymethyl-piperazin-1-yl]-[5-(4-fluoro-phenyl)-4-methoxy-pyridin-2-yl]-methanone], 370 nM. As for `COc1cc(C(=O)N2C[C@@H]3C[C@H]2CN3c2ccc(N)nn2)ncc1-c1ccc(C(F)(F)F)cc1` [Compound 116, [(1S,4S)-5-(6-Amino-pyridazin-3-yl)-2,5-diaza-bicyclo[2.2.1]hept-2-yl]-[4-methoxy-5-(4-trifluoromethyl-phenyl)-pyridin-2-yl]-methanone], the IC50 is 190 nM.

With `COc1cc(C(=O)N2CCC(c3nnc(N)cc3OC)CC2)ncc1-c1ccc(C(F)(F)F)cc1` [Compound 85, [4-(6-Amino-4-methoxy-pyridazin-3-yl)-piperidin-1-yl]-[4-methoxy-5-(4-trifluoromethyl-phenyl)-pyridin-2-yl]-methanone], the half-maximal inhibitory concentration (IC50) came to 350 nM. Take `COc1cc(C(=O)N2CCC(c3ccc(N)nn3)CC2)ccc1-c1ccc(OC(F)(F)F)cc1` [Compound 56, [4-(6-Amino-pyridazin-3-yl)-piperidin-1-yl]-(2-methoxy-4′-trifluoromethoxy-biphenyl-4-yl)-methanone]: the concentration for half-maximal inhibition (IC50) was 910 nM. Turning to `COc1cc(C(=O)N2CCC(c3ccc(N)nn3)CC2)ccc1-c1ccccc1` [Compound 60, [4-(6-Amino-pyridazin-3-yl)-piperidin-1-yl]-(2-methoxy-biphenyl-4-yl)-methanone], the 50% inhibitory concentration (IC50) is 930 nM. To `COc1ccc(-c2cnc(C(=O)N3CCC(c4ccc(N)nn4)CC3)cc2OC)cn1` [Compound 46, [4-(6-Amino-pyridazin-3-yl)-piperidin-1-yl]-(4,6′-dimethoxy-[3,3′]bipyridinyl-6-yl)-methanone] belongs 4000 nM; to `COc1cc(C(=O)N2CCC(c3ccc(N)nn3)CC2)ncc1-c1ccc(OC2CCC2)nc1` [Compound 49, [4-(6-Amino-pyridazin-3-yl)-piperidin-1-yl]-(6′-cyclobutoxy-4-methoxy-[3,3′]bipyridinyl-6-yl)-methanone], 140 nM; to `CCOc1ccc(-c2cnc(C(=O)N3CCC(c4ccc(N)nn4)CC3)cc2OC)cc1` [Compound 37, [4-(6-Amino-pyridazin-3-yl)-piperidin-1-yl]-[5-(4-ethoxy-phenyl)-4-methoxy-pyridin-2-yl]-methanone], 320 nM.

With `COc1cc(C(=O)N2CCC(c3ccc(N)nn3)CC2)ccc1-c1ccc(OC2CC2)nc1` [Compound 73, [4-(6-Amino-pyridazin-3-yl)-piperidin-1-yl]-[4-(6-cyclopropoxy-pyridin-3-yl)-3-methoxy-phenyl]-methanone], the 50% inhibitory concentration (IC50) was found to be 510 nM.

As to `COc1cc(C(=O)N2CCN(c3cnc(N)cc3OC)C[C@H]2CO)ncc1-c1ccc(C(F)(F)F)cc1` [Compound 101, [(S)-4-(6-Amino-4-methoxy-pyridin-3-yl)-2-hydroxymethyl-piperazin-1-yl]-[4-methoxy-5-(4-trifluoromethyl-phenyl)-pyridin-2-yl]-methanone], the IC50 stood at 390 nM. To `COc1cc(C(=O)N2CCC(c3ccc(N)nn3)CC2)ncc1-c1ccc(C)c(C#N)c1` [Compound 51, 5-{6-[4-(6-Amino-pyridazin-3-yl)-piperidine-1-carbonyl]-4-methoxy-pyridin-3-yl}-2-methyl-benzonitrile] belongs 900 nM; to `COc1cc(C(=O)N2CCN(c3cnc(N)cc3OC)CC2)ncc1-c1ccc(F)cc1` [Compound 104, [4-(6-Amino-4-methoxy-pyridin-3-yl)-piperazin-1-yl]-[5-(4-fluoro-phenyl)-4-methoxy-pyridin-2-yl]-methanone], 27 nM; to `CC[C@@H](C)Oc1ccc(-c2ccc(C(=O)N3CCC(c4ccc(N)nn4)CC3)cc2OC)cn1` [Compound 74, [4-(6-Amino-pyridazin-3-yl)-piperidin-1-yl]-{4-[6-((R)-sec-butoxy)-pyridin-3-yl]-3-methoxy-phenyl}-methanone], 140 nM.

With `COc1cc(C(=O)N2CCC(c3ccc(N)nn3)CC2)ncc1-c1ccccc1` [Compound 32, [4-(6-Amino-pyridazin-3-yl)-piperidin-1-yl]-(4-methoxy-5-phenyl-pyridin-2-yl)-methanone], the IC50 was found to be 110 nM. To `Nc1ccc(C2CCN(C(=O)c3ccc(-c4cccc(F)c4)cc3)CC2)nn1` [Compound 8, [4-(6-Amino-pyridazin-3-yl)-piperidin-1-yl]-(3′-fluoro-biphenyl-4-yl)-methanone] belongs 6700 nM; to `COc1cc(C(=O)N2CCC(c3ccc(N)nn3)CC2)ncc1-c1ccc(OC(F)(F)F)cc1` [Compound 31, [4-(6-Amino-pyridazin-3-yl)-piperidin-1-yl]-[4-methoxy-5-(4-trifluoromethoxy-phenyl)-pyridin-2-yl]-methanone], 94 nM. To `COc1cc(C(=O)N2CCC(c3ccc(N)nc3)CC2)ncc1-c1ccc(C(F)(F)F)nc1` [Compound 97, (6-Amino-3′,4′,5′,6′-tetrahydro-2′H-[3,4′]bipyridinyl-1′-yl)-(4-methoxy-6′-trifluoromethyl-[3,3′]bipyridinyl-6-yl)-methanone] belongs 69 nM. Consider `CC(C)(C)c1ccc(-c2ccc(C(=O)N3CCC(c4ccc(N)nn4)CC3)cc2)cc1` [Compound 10, [4-(6-Amino-pyridazin-3-yl)-piperidin-1-yl]-(4′-tert-butyl-biphenyl-4-yl)-methanone], for which the 50% inhibitory concentration (IC50) was found to be 9200 nM. To `COc1cc(C(=O)N2CCN(c3cnc(N)cc3OC)CC2CC(F)F)ncc1-c1ccc(C(F)(F)F)cc1` (stereo not shown) [Compound 108, [4-(6-Amino-4-methoxy-pyridin-3-yl)-2-(2,2-difluoro-ethyl)-piperazin-1-yl]-[4-methoxy-5-(4-trifluoromethyl-phenyl)-pyridin-2-yl]-methanone] belongs 700 nM; to `COc1cc(C(=O)N2CCN(c3cnc(N)cc3OC)C[C@@H]2CO)ncc1-c1ccc(C(F)(F)F)cc1` [Compound 95, [(R)-4-(6-Amino-4-methoxy-pyridin-3-yl)-2-hydroxymethyl-piperazin-1-yl]-[4-methoxy-5-(4-trifluoromethyl-phenyl)-pyridin-2-yl]-methanone], 580 nM. Under `COc1cc(C(=O)N2CCC(c3ccc(N)nn3)CC2)ncc1-c1ccc(OC(C)C)cc1` [Compound 30, [4-(6-Amino-pyridazin-3-yl)-piperidin-1-yl]-[5-(4-isopropoxy-phenyl)-4-methoxy-pyridin-2-yl]-methanone] stands 340 nM. Under `COc1ccc(-c2ccc(C(=O)N3CCC(c4ccc(N)nn4)CC3)cc2)cc1` [Compound 5, [4-(6-Amino-pyridazin-3-yl)-piperidin-1-yl]-(4′-methoxy-biphenyl-4-yl)-methanone] stands 2500 nM; under `Cc1ccc(-c2ccc(C(=O)N3CCC(c4ccc(N)nn4)CC3)cc2)cc1` [Compound 3, [4-(6-Amino-pyridazin-3-yl)-piperidin-1-yl]-(4′-methyl-biphenyl-4-yl)-methanone], 1700 nM. `COc1cc(C(=O)N2CCC(c3ccc(N)nn3)CC2)ccc1-c1cnc(OC(C)C)nc1` [Compound 62, [4-(6-Amino-pyridazin-3-yl)-piperidin-1-yl]-[4-(2-isopropoxy-pyrimidin-5-yl)-3-methoxy-phenyl]-methanone]: the half-inhibitory concentration (IC50) was determined as 1100 nM. For `COc1cc(C(=O)N2CCC(c3ccc(N)nc3)CC2)ncc1-c1ccc(F)cc1` [Compound 72, (6-Amino-3′,4′,5′,6′-tetrahydro-2′H-[3,4′]bipyridinyl-1′-yl)-[5-(4-fluoro-phenyl)-4-methoxy-pyridin-2-yl]methanone], the half-maximal inhibitory concentration (IC50) amounted to 27 nM.

Consider `COc1cc(C(=O)N2CCC(c3ccc(N)nn3)CC2)ncc1-c1ccc(F)cc1` [Compound 36, 6-{1-[5-(4-Fluorophenyl)-4-methoxypyridine-2-carbonyl]piperidin-4-yl}pyridazin-3-amine], for which the concentration for half-maximal inhibition (IC50) came out at 27 nM.
